Data reported in publication PMC5618429, “Kempopeptin C, a Novel Marine-Derived Serine Protease Inhibitor Targeting Invasive Breast Cancer” (Marine Drugs, 2017).
Like-named read-outs stand apart in the source and are kept apart here.

Tests used:
trypsin = details: read-out: IC50 trypsin inhibition; cited from earlier work
plasmin = tested on: plasmin; design: method as in PMID 20405925; details: read-out: IC50 plasmin inhibition; cited from earlier work
[1] = tested on: CDCP1 cleavage in MDA-MB-231 cells; design: method as in PMID 22543582; details: positive control, through upregulation of PAI-1; cited from earlier work
[2] = biological target: T1, recombinant human matriptase (Homo sapiens, UniProt Q9Y5Y6); assay: Matriptase inhibition assay; format: biochemical; details: mean ± SD, n = 3; 15-min preincubation; read-out: IC50 against matriptase
T1 construct: purchased R&D Systems 3946-SE-010
T1 sequence (Q9Y5Y6 615-855 limits assumed): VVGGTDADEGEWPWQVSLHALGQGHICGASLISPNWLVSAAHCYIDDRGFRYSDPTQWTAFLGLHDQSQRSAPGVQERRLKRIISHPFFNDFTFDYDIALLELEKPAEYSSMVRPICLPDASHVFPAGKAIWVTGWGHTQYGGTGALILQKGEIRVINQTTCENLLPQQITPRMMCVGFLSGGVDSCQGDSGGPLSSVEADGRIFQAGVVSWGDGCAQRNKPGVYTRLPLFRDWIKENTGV
Method: In matriptase inhibition assay, 50 µL of recombinant human matriptase (R&D Systems, Minneapolis, MN, USA; 3946-SE-010) ([…] prepared in assay buffer: 50 mM Tris, 50 mM NaCl, 0.01% Tween 20; pH 9.0) and 1 µL of different concentrations of inhibitors (2 and 3; half log dilutions prepared in DMSO) or the solvent control were pre-incubated at room temperature for 15 min. Following the incubation period, 50 µL of the 50 µM substrate solution (Boc-Gln-Ala-Arg-AMC) (R&D Systems, Minneapolis, MN, USA; ES014) were added to each well, and the enzyme activity was monitored by measuring the increase in fluorescence signal from the fluorescently-labeled substrate every 30 s for 30 min (Ex 380 nm, Em 460 nm) using the SpectraMax M5 plate reader (Molecular Devices).

[3] = biological target: T2, trypsin from porcine pancreas (Sus scrofa, UniProt P00761); assay: Trypsin inhibition assay; format: biochemical; details: mean ± SD, n = 3; 30-min preincubation; read-out: IC50 against trypsin
T2 construct: purchased Sigma T0303; host or cells: porcine pancreas
T2 sequence (P00761 9-231): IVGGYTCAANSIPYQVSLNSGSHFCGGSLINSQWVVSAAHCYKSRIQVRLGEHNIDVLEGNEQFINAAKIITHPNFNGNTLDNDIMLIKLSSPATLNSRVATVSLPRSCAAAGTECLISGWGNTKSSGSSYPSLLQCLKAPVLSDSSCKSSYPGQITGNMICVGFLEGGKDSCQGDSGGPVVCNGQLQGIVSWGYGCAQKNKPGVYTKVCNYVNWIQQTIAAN
Method: The trypsin inhibition assay was carried out at room temperature by incubating 10 µL of trypsin from porcine pancreas (T0303, Sigma, St. Louis, MO, USA) (100 µM prepared in assay buffer) with 39 µL of assay buffer (50 mM Tris-HCl, 100 mM NaCl, 1 mM CaCl2; pH 7.8) in the presence of 1 µL of different concentrations of inhibitors (2 and 3; half log dilutions prepared in DMSO) or the solvent control. After a 30-min incubation time, 50 µL of the 1.5 mM substrate: Nα-benzoyl-DL-arginine-4-nitroanilide (prepared as 2 mM stock solution in DMF and further diluted to 1.5 mM in assay buffer) were added to each well. The reaction was monitored by measuring the absorbance at 405 nm every 30 s for 30 min using SpectraMax M5 plate reader (Molecular Devices, Sunnyvale, CA, USA).

[4] = tested on: CDCP1 cleavage in MDA-MB-231 cells; assay: Cleavage of CDCP1 in MDA-MB-231 cells (Western blot); format: cell-based; details: 72 h, different concentrations
Method: The experiment was performed by treating MDA-MB-231 cells with different concentrations of either kempopeptin B (2) or C (3) for 72 h (Figure 6A). Dexamethasone (Dex) 100 nM was used as a positive control.
Figure 6 The effect of kempopeptins B and C (2 and 3) on CDCP1 cleavage in MDA-MB-231. (A) MDA-MB-231 cells were treated for 72 h with different concentrations of the test compounds. Following 72 h, the lysates were collected and analyzed by Western blot. (B) MDA-MB-231 cells were treated at different time points with 100 µM of kempopeptin C (3). Following 6 h, 12 h and 24 h, the lysates were collected and analyzed by Western blot. Dexamethasone (Dex) was used as a positive control. (C) MDA-MB-231 cells treated for 24 h with different concentrations of 3 in the presence of 10 nM recombinant human matriptase. Cell lysates were harvested and analyzed by Western blot. (D) Densitometric analysis of the full-length, LMW of CDCP1 and actin bands in (C).
MDA-MB-231 cells (150,000 cells/well) were seeded in 12-well plates. After 24 h, the media were replaced, and cells were treated with different concentrations of inhibitors (2 or 3; prepared in DMSO), the solvent control or the positive control dexamethasone. Whole-cell protein lysates were collected after 6, 12, 24 and 72 h using PhosphoSafe lysis buffer (Novagen, Madison, USA) and the protein concentration measured using the BCA Protein Assay kit (Pierce; 23227; Thermofisher Scientific; Waltham, MA, USA). Twenty micrograms of protein were separated by SDS-PAGE, transferred to polyvinylidene difluoride (PVDF) membranes, probed with CDCP1 antibody (Cell Signaling; 4115S) and detected with SuperSignal West Femto Maximum Sensitivity Substrate (Pierce).

elastase = biological target: elastase; design: method as in PMID 18693761; details: cited from earlier work
[5] = Cell viability assay (MTT); format: cell-based; details: human, MDA-MB-231 breast cancer cells; MDA-MB-231, 48 h, all concentrations tested (32 µM to 320 pM)
Method: MDA-MB-231 cells were seeded in 96-well plates (10,000 cells/well). After 24 h of incubation, the cells were treated with different concentrations of kempopeptins B or C (2 or 3) or the solvent control (DMSO). Following 48 h of incubation, cell viability was measured using 3-(4,5-dimethylthiazol-2-yl)-2,5-diphenyltetrazolium bromide according to the manufacturer's instructions (Promega, Madison, WI, USA).
Effect of kempopeptins on the viability of MDA-MB-231 cells
Kempopeptin C Kempopeptin B
Figure S1. Effect of kempopeptins B and C (2) and (3) on the viability of MDA -MB-231 breast cancer cells.

[6] = biological target: T3, plasmin from human plasma (Homo sapiens, UniProt P00747); assay: Plasmin inhibition assay; format: biochemical; details: mean ± SD, n = 3; 30-min preincubation; read-out: IC50 against plasmin
T3 construct: purchased Sigma P1867; host or cells: human plasma
T3 sequence (P00747 581-810 limits assumed): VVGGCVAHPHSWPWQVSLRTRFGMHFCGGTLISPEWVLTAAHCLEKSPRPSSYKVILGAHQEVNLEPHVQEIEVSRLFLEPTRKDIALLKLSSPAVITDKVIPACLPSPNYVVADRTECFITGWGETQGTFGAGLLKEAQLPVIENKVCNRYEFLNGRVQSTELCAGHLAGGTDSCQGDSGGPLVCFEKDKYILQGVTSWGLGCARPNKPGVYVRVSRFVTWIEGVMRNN
T3 sequence (P00747 98-580 partner limits assumed): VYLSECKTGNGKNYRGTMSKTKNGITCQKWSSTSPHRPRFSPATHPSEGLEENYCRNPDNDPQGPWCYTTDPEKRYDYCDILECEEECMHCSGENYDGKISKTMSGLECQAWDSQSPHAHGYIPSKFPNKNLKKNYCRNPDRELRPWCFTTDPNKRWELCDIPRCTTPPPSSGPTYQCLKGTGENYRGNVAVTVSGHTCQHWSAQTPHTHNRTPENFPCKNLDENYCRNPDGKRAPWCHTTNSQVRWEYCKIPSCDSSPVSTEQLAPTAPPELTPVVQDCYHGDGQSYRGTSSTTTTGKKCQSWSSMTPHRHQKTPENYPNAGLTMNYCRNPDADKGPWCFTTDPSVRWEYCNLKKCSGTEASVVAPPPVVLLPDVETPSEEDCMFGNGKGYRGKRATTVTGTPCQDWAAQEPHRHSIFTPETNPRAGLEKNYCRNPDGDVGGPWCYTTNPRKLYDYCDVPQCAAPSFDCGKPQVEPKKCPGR
Method: The plasmin inhibition assay was carried out by incubating 5 µL of […] plasmin from human plasma (P1867, Sigma, St. Louis, MO, USA) with 1 µL of different concentrations of inhibitors (2 and 3; half log dilutions prepared in DMSO) or the solvent control in the presence of 89 µL assay buffer (0.05 M Tris-HCl, pH 8.9). After a 30-min incubation time, 5 µL of 1.7 mM substrate solution (N-p-Tosyl-D-Gly-Pro-Lys-4-nitroanilide acetate salt; prepared in assay buffer) were added to each well. The reaction was monitored by measuring the absorbance at 405 nm every 30 s for 30 min using the SpectraMax M5 plate reader (Molecular Devices).

chymotrypsin = tested on: chymotrypsin; design: method as in PMID 18693761; details: cited from earlier work

## CC(C)C[C@@H](NC(=O)[C@H](O)COS(=O)(=O)O)C(=O)N[C@@H]1C(=O)N[C@@H](CCCNC(=N)N)C(=O)N[C@H]2CC[C@@H](O)N(C2=O)[C@@H](CC(C)C)C(=O)N(C)[C@@H](Cc2ccc(O)cc2)C(=O)N[C@@H](C(C)C)C(=O)O[C@@H]1C [Compound A90720A, A90720A]
trypsin
  IC50: ~10 nM

## CCCCCC(=O)N[C@@H](CCC(=O)O)C(=O)N[C@@H]1C(=O)N[C@@H](CCCNC(=N)N)C(=O)N[C@H]2CC[C@@H](O)N(C2=O)[C@@H](Cc2ccccc2)C(=O)N(C)[C@@H](Cc2ccc(O)cc2)C(=O)N[C@@H](C(C)C)C(=O)O[C@@H]1C [Cyanopeptolin 1020, cyanopeptolin 1020]
plasmin
  IC50: ~490 nM
trypsin
  IC50: 0.67 nM

## C[C@@H]1C[C@H]2[C@@H]3CCC4=CC(=O)C=C[C@]4(C)[C@@]3(F)[C@@H](O)C[C@]2(C)[C@@]1(O)C(=O)CO [Dexamethasone]
[1]
  Effect on cleavage of full-length CDCP1: blocks the cleavage of the full-length CDCP1

## CCCC(=O)N[C@@H](CCC(N)=O)C(=O)N[C@@H]1C(=O)N[C@@H](CCCNC(N)=O)C(=O)N[C@H]2CC[C@@H](O)N(C2=O)[C@@H]([C@@H](C)CC)C(=O)N(C)[C@@H](Cc2ccc(OC)c(Br)c2)C(=O)N[C@@H](C(C)C)C(=O)O[C@@H]1C [Symplocamide A, symplocamide A]
trypsin
  IC50: ~80000 nM

## CCCC(=O)N[C@H](C(=O)N[C@@H]1C(=O)N[C@@H](CCCCN)C(=O)N[C@H]2CC[C@@H](O)N(C2=O)[C@@H]([C@@H](C)CC)C(=O)N(C)[C@@H](Cc2ccc(OC)c(Br)c2)C(=O)N[C@@H](C(C)C)C(=O)O[C@@H]1C)C(C)C [Kempopeptin B, kempopeptin B]
[2]
  IC50: 1830 ± 190 nM
[3]
  IC50: 1490 ± 180 nM
[4]
  Inhibition of CDCP1 cleavage in MDA-MB-231: No inhibition of CDCP1 cleavage was observed
elastase; read-out: IC50 against elastase
  IC50: > 67000 nM
[5]
  viability at 48 h: > 90%
[6]
  IC50: 1050 ± 190 nM
chymotrypsin; read-out: IC50 against chymotrypsin
  IC50: > 67000 nM

## CC(=O)N1CCC[C@H]1C(=O)N[C@H](C(=O)N[C@@H]1C(=O)N[C@@H](CC(C)C)C(=O)N[C@H]2CC[C@@H](O)N(C2=O)[C@@H](Cc2ccccc2)C(=O)N(C)[C@@H](Cc2ccc(O)cc2)C(=O)N[C@@H](C(C)C)C(=O)O[C@@H]1C)[C@@H](C)O [Kempopeptin A, kempopeptin A]
elastase; read-out: IC50 elastase inhibition
  IC50: 320 nM
chymotrypsin; read-out: IC50 chymotrypsin inhibition
  IC50: 2600 nM
